In patent EP0908457B1, “3-(1,2-benzisothiazol- and isoxazol-5-Y1)-2,4(1H,3H)-pyrimidinedione or thione and 3-(1,2-benzisothiazol- and isoxazol-5-y1)-4(3H)-pyrimidinone or thione herbicidal agents” (BASF AKTIENGESELLSCHAFT, priority 1997, dated 1999):

Tests used:
[1] = system: Echinochloa oryzoides (Ard.) Fritsch.; experiment: Preemergence weed control under flooded paddy conditions, ECHORC (Watergrass (Calif.)); assay type: in vivo; settings: flooded paddy; note: meaning of each grade not given here
Cyperus iria = experiment: Preemergence weed control under flooded paddy conditions, CYPIR (Rice Flatsedge); assay type: in vivo; settings: flooded paddy; note: meaning of each grade not given here
[2] = system: Cyperus serotinus, Rottb.; experiment: Preemergence weed control under flooded paddy conditions, CYPSE (Flatsedge); assay type: in vivo; note: meaning of each grade not given here
[3] = system: Monochoria vaginalis, Presl.; experiment: Preemergence weed control under flooded paddy conditions, MOOVA (Monochoria); assay type: in vivo; settings: flooded paddy; note: meaning of each grade not given here
Sagittaria pygmaea, L. = experiment: Preemergence weed control under flooded paddy conditions, SAGPY (Arrowhead (Pygmaea)); assay type: in vivo; settings: flooded paddy; note: meaning of each grade not given here
[4] = system: Oryza sativa, (L.) Tebonnet; experiment: Rice tolerance to post-transplant applications under flooded paddy conditions (Example 187), ORYSAT (Rice, Tebonnet); for herbicidal effect rating ORYSAT: meaning of each grade not given here
[5] = 0.0313 kg/ha, preemergence, rated three to four weeks after treatment
[6] = 0.0625 kg/ha, preemergence, rated three to four weeks after treatment
[7] = 0.1250 kg/ha, preemergence, rated three to four weeks after treatment
[8] = 0.2500 kg/ha, preemergence, rated three to four weeks after treatment
[9] = 0.0313 kg/ha, rated three to four weeks after treatment
[10] = 0.0625 kg/ha, rated three to four weeks after treatment
[11] = 0.1250 kg/ha, rated three to four weeks after treatment
[12] = 0.2500 kg/ha, rated three to four weeks after treatment
[13] = Rate 0.0320 kg/ha, preemergence weeds, rated three to four weeks after treatment
[14] = Rate 0.0620 kg/ha, preemergence weeds, rated three to four weeks after treatment
[15] = Rate 0.1250 kg/ha, preemergence weeds, rated three to four weeks after treatment
[16] = Rate 0.2500 kg/ha, preemergence weeds, rated three to four weeks after treatment
[17] = Rate 0.0320 kg/ha, preemergence, rated 3-4 weeks after treatment
[18] = Rate 0.0620 kg/ha, preemergence, rated 3-4 weeks after treatment
[19] = Rate 0.1250 kg/ha, preemergence, rated 3-4 weeks after treatment
[20] = Rate 0.2500 kg/ha, preemergence, rated 3-4 weeks after treatment
[21] = Rate 0.5000 kg/ha, preemergence, rated 3-4 weeks after treatment

With Cc1noc2cc(F)c(-n3c(=O)cc(C(F)(F)F)n(C)c3=O)cc12 [Example 23, 3-(6-Fluoro-3-methyl-1,2-benzisoxazol-5-yl)-1-methyl-6-(trifluoromethyl)-2,4(1H,3H)-pyrimidinedione] the “herbicidal effect rating, ECHORC” value [1, 5] was 4.5, the “herbicidal effect rating, ECHORC” value [1, 6] was 7.0 and the “herbicidal effect rating, ECHORC” value [1, 7] was 8.5. For the same compound, the “herbicidal effect rating, ECHORC” value [1, 8] was 9.0, the “herbicidal effect rating, CYPIR” value (Cyperus iria; [5]) was 7.0 and the “herbicidal effect rating, CYPIR” value (Cyperus iria; [6]) was 9.0. For the same compound, the “herbicidal effect rating, CYPIR” value (Cyperus iria; [7]) was 9.0, the “herbicidal effect rating, CYPIR” value (Cyperus iria; [8]) was 9.0 and the “herbicidal effect rating, CYPSE” value [2, 5] was 4.0. The “herbicidal effect rating, CYPSE” value [2, 6] was 7.0, the “herbicidal effect rating, CYPSE” value [2, 7] was 8.0 and the “herbicidal effect rating, CYPSE” value [2, 8] was 9.0. The “herbicidal effect rating, MOOVA” value [3, 5] was 9.0, the “herbicidal effect rating, MOOVA” value [3, 6] was 9.0 and the “herbicidal effect rating, MOOVA” value [3, 7] was 9.0. For the same compound, the “herbicidal effect rating, MOOVA” value [3, 8] was 9.0, the “herbicidal effect rating, SAGPY” value (Sagittaria pygmaea, L.; [5]) was 4.0 and the “herbicidal effect rating, SAGPY” value (Sagittaria pygmaea, L.; [6]) was 6.0. For the same compound, the “herbicidal effect rating, SAGPY” value (Sagittaria pygmaea, L.; [7]) was 9.0, the “herbicidal effect rating, SAGPY” value (Sagittaria pygmaea, L.; [8]) was 9.0 and the “herbicidal effect rating, ORYSAT (rice tolerance)” value (“herbicidal effect rating, ORYSAT” below) [4, 9] was 5.5. For the same compound, the “herbicidal effect rating, ORYSAT” value [4, 10] was 6.5, the “herbicidal effect rating, ORYSAT” value [4, 11] was 8.0 and the “herbicidal effect rating, ORYSAT” value [4, 12] was 8.5.
For CN(C)C(=O)c1nsc2ccc(-n3c(=O)cc(C(F)(F)F)n(C)c3=O)cc12 [Example 329, 1,2-Benzisothiazole-3-carboxamide, 5-[3,6-dihydro-3-methyl-2,6-dioxo-4-(trifluoromethyl)-1(2H)-pyrimidinyl]-N,N-dimethyl-], the “herbicidal effect rating, ECHORC” value [1, 13] was 2.0, the “herbicidal effect rating, ECHORC” value [1, 14] was 3.0 and the “herbicidal effect rating, ECHORC” value [1, 15] was 3.0. For the same compound, the “herbicidal effect rating, ECHORC” value [1, 16] was 3.0, the “herbicidal effect rating, CYPIR” value (Cyperus iria; [13]) was 0.0 and the “herbicidal effect rating, CYPIR” value (Cyperus iria; [14]) was 0.0. For the same compound, the “herbicidal effect rating, CYPIR” value (Cyperus iria; [15]) was 0.0, the “herbicidal effect rating, CYPIR” value (Cyperus iria; [16]) was 0.0 and the “herbicidal effect rating, CYPSE” value [2, 13] was 0.0. For the same compound, the “herbicidal effect rating, CYPSE” value [2, 14] was 0.0, the “herbicidal effect rating, CYPSE” value [2, 15] was 0.0 and the “herbicidal effect rating, CYPSE” value [2, 16] was 0.0. The “herbicidal effect rating, MOOVA” value [3, 13] was 9.0, the “herbicidal effect rating, MOOVA” value [3, 14] was 9.0 and the “herbicidal effect rating, MOOVA” value [3, 15] was 9.0. For the same compound, the “herbicidal effect rating, MOOVA” value [3, 16] was 9.0, the “herbicidal effect rating, SAGPY” value (Sagittaria pygmaea, L.; [13]) was 3.0 and the “herbicidal effect rating, SAGPY” value (Sagittaria pygmaea, L.; [14]) was 4.0. The “herbicidal effect rating, SAGPY” value (Sagittaria pygmaea, L.; [15]) was 4.0, the “herbicidal effect rating, SAGPY” value (Sagittaria pygmaea, L.; [16]) was 4.0 and the “herbicidal effect rating ORYSAT” value ([4]; Rate 0.0320 kg/ha, rated three to four weeks after treatment) was 3.0. For the same compound, the “herbicidal effect rating ORYSAT” value ([4]; Rate 0.0620 kg/ha, rated three to four weeks after treatment) was 3.0, the “herbicidal effect rating ORYSAT” value ([4]; Rate 0.1250 kg/ha, rated three to four weeks after treatment) was 3.0 and the “herbicidal effect rating ORYSAT” value ([4]; Rate 0.2500 kg/ha, rated three to four weeks after treatment) was 3.0.
For Cc1ccc(O)c(-c2noc3ccc(-n4c(=O)cc(C(F)(F)F)n(C)c4=O)c(Cl)c23)c1 [Example 41, 3-[4-Chloro-3-(6-hydroxy-m-tolyl)-1,2-benzisoxazol-5-yl]-1-methyl-6-(trifluoromethyl)-2,4(1H,3H)-pyrimidinedione], the “herbicidal effect rating, ECHORC” value [1, 5] was 0.0, the “herbicidal effect rating, ECHORC” value [1, 6] was 0.0 and the “herbicidal effect rating, ECHORC” value [1, 7] was 2.0. For the same compound, the “herbicidal effect rating, ECHORC” value [1, 8] was 6.0, the “herbicidal effect rating, CYPIR” value (Cyperus iria; [5]) was 0.0 and the “herbicidal effect rating, CYPIR” value (Cyperus iria; [6]) was 0.0. The “herbicidal effect rating, CYPIR” value (Cyperus iria; [7]) was 1.0, the “herbicidal effect rating, CYPIR” value (Cyperus iria; [8]) was 2.0 and the “herbicidal effect rating, CYPSE” value [2, 5] was 0.0. For the same compound, the “herbicidal effect rating, CYPSE” value [2, 6] was 0.0, the “herbicidal effect rating, CYPSE” value [2, 7] was 0.0 and the “herbicidal effect rating, CYPSE” value [2, 8] was 0.0. The “herbicidal effect rating, MOOVA” value [3, 5] was 0.0, the “herbicidal effect rating, MOOVA” value [3, 6] was 2.0 and the “herbicidal effect rating, MOOVA” value [3, 7] was 4.0. The “herbicidal effect rating, MOOVA” value [3, 8] was 9.0, the “herbicidal effect rating, SAGPY” value (Sagittaria pygmaea, L.; [5]) was 0.0 and the “herbicidal effect rating, SAGPY” value (Sagittaria pygmaea, L.; [6]) was 0.0. For the same compound, the “herbicidal effect rating, SAGPY” value (Sagittaria pygmaea, L.; [7]) was 0.0, the “herbicidal effect rating, SAGPY” value (Sagittaria pygmaea, L.; [8]) was 0.0 and the “herbicidal effect rating, ORYSAT” value [4, 9] was 0.0. For the same compound, the “herbicidal effect rating, ORYSAT” value [4, 10] was 0.0, the “herbicidal effect rating, ORYSAT” value [4, 11] was 0.0 and the “herbicidal effect rating, ORYSAT” value [4, 12] was 0.0.
With Cc1ccc(OC(C)C(=O)c2ccc(C)c(C)c2)c(-c2nsc3ccc(-n4c(=O)cc(C(F)(F)F)n(C)c4=O)cc23)c1 (centres unmarked) [Example 542, 2,4(1H,3H)-Pyrimidinedione, 3-{3-{6-[1-(3,4-dimethylbenzoyl)ethoxy]-m-tolyl}-1,2-benzisothiazol-5-yl}-1-methyl-6-(trifluoromethyl)-] the “herbicidal effect rating, ECHORC” value [1, 17] was 1.7, the “herbicidal effect rating, ECHORC” value [1, 18] was 2.7 and the “herbicidal effect rating, ECHORC” value [1, 19] was 4.3. For the same compound, the “herbicidal effect rating, ECHORC” value [1, 20] was 8.0, the “herbicidal effect rating, ECHORC” value [1, 21] was 9.0 and the “herbicidal effect rating, CYPIR” value (Cyperus iria; [17]) was 0.0. The “herbicidal effect rating, CYPIR” value (Cyperus iria; [18]) was 0.0, the “herbicidal effect rating, CYPIR” value (Cyperus iria; [19]) was 2.0 and the “herbicidal effect rating, CYPIR” value (Cyperus iria; [20]) was 4.0. The “herbicidal effect rating, CYPIR” value (Cyperus iria; [21]) was 9.0, the “herbicidal effect rating, CYPSE” value [2, 17] was 0.0 and the “herbicidal effect rating, CYPSE” value [2, 18] was 0.0. For the same compound, the “herbicidal effect rating, CYPSE” value [2, 19] was 0.0, the “herbicidal effect rating, CYPSE” value [2, 21] was 0.0 and the “herbicidal effect rating, MOOVA” value [3, 17] was 7.0. The “herbicidal effect rating, MOOVA” value [3, 18] was 9.0, the “herbicidal effect rating, MOOVA” value [3, 19] was 9.0 and the “herbicidal effect rating, MOOVA” value [3, 20] was 9.0. For the same compound, the “herbicidal effect rating, MOOVA” value [3, 21] was 9.0, the “herbicidal effect rating, SAGPY” value (Sagittaria pygmaea, L.; [17]) was 0.0 and the “herbicidal effect rating, SAGPY” value (Sagittaria pygmaea, L.; [18]) was 0.0. The “herbicidal effect rating, SAGPY” value (Sagittaria pygmaea, L.; [19]) was 0.0, the “herbicidal effect rating, SAGPY” value (Sagittaria pygmaea, L.; [20]) was 0.0 and the “herbicidal effect rating, SAGPY” value (Sagittaria pygmaea, L.; [21]) was 9.0. For the same compound, the “herbicidal effect rating ORYSAT” value ([4]; Rate 0.0320 kg/ha, rated 3-4 weeks after treatment) was 0.0, the “herbicidal effect rating ORYSAT” value ([4]; Rate 0.0620 kg/ha, rated 3-4 weeks after treatment) was 0.0 and the “herbicidal effect rating ORYSAT” value ([4]; Rate 0.1250 kg/ha, rated 3-4 weeks after treatment) was 0.0. For the same compound, the “herbicidal effect rating ORYSAT” value ([4]; Rate 0.2500 kg/ha, rated 3-4 weeks after treatment) was 0.0 and the “herbicidal effect rating ORYSAT” value ([4]; Rate 0.5000 kg/ha, rated 3-4 weeks after treatment) was 2.0.
